Columns and labels:
[1] = test system: BJ-5ta cells; assay: Percentage of spread cells / cell spreading on TGT surfaces; type: cell-based, human
Procedure: Glass coverslips were densely PEGylated to minimize non-specific interactions such as the binding of cell-secreted extracellular matrix proteins. Coverslips cleaned by piranha etching solution (a 3:1 mixture of sulfuric acid and hydrogen peroxide) were incubated in silanization solution (UCT, 1760-24-3; 2% aminosilane and 5% acetic acid in methanol) for 30 min and reacted with a mixture of Polyethylene glycol (PEG) with and without biotin (1:19, 150 mg/ml; Laysan Bio, Biotin-PEG-SVA-5000 and MPEG-SVA-5000) for 4 h. Surfaces were washed thoroughly and dried using nitrogen gas after each step. A 3D-printed dish (PLA) or a silicon gasket (Grace Bio Labs, 103280) was attached to the coverslip to form a dish. Neutravidin (Thermo Fisher scientific, 31000; 0.4 mg/ml) was added to the dish for 10 min and washed out thoroughly. The dish was emptied and a droplet (3 µL) of TGT solution (100 nM unless specified otherwise) was placed on the coverslip for 10 min in a humid condition to locally immobilize TGT. For the lateral drift correction for time-resolved TGT rupture analysis, biotin-coated gold nanoparticles (Luna Nanotech, GNP-BIOT-100-2-04; 100 nm) were sparsely immobilized as fiducial markers. For protein ligand coating, protein (50 ug/ml in PBS) was incubated in glass bottomed imaging dishes for 1 h at RT without additional passivation.
The cells were gently harvested by washing in PBS for 1 min, incubating with 0.05% trypsin for 3 min, and then neutralizing with cell culture medium (FBS 10%). The cells were spun down and resuspended with Leibovitz’s L-15 Medium (Gibco, 21083027) supplemented with 2 g/L glucose, then seeded on the TGT surface at an approximate density of 30 cells/mm^2. For integrin inhibition experiments, cells were incubated with Fab for 5 min before seeding. For cell immobilization experiments, cells were incubated with 1 nM Cholesterol-PEG-Biotin (Nanosoft Polymers, 3084-2000) for 5 min, followed by washes by centrifugation to remove biotin in solution before seeding. The imaging area was humidified and the temperature was maintained at 37 °C. A Nikon Eclipse Ti microscope equipped with Xenon arc lamp, Nikon perfect focus system, custom total internal reflection fluorescence microscopy (TIRFM) module, and custom reflection interference contrast microscopy (RICM) module was driven by Elements software. Dark regions in RICM show where cells have closely adhered to the surface (≪300 nm gap). Nikon 10X objective (CFI60 Plan Fluor) and 60X objective (CFI60 Apochromat TIRF) with DIC filter sets were used. […] Images were recorded using an electron-multiplying charge-coupled device (EMCCD; Andor iXon 888).
Single-cell data were obtained from multiple independent sample preparations for each condition as specified. Percentage of spread cells was obtained from three independent experiments. Statistical analyses were performed using MATLAB software. Two-sided (two sample) t-test was used for two group comparisons. Each group was compared with the control group unless specified otherwise. Representative micrographs are selected from at least two independent experiments.

[2] = target: T1, EO state of integrin α5β1 (Homo sapiens, UniProt P05556+P08648); assay: Intrinsic affinity for EO state of α5β1 stabilized by 12G10 Fab; type: binding; conditions: 2 µM 12G10 Fab versus basal
T1 construct: endogenous in cells; host or cells: K562 wild type
T1 sequence (P08648 42-894 limits assumed): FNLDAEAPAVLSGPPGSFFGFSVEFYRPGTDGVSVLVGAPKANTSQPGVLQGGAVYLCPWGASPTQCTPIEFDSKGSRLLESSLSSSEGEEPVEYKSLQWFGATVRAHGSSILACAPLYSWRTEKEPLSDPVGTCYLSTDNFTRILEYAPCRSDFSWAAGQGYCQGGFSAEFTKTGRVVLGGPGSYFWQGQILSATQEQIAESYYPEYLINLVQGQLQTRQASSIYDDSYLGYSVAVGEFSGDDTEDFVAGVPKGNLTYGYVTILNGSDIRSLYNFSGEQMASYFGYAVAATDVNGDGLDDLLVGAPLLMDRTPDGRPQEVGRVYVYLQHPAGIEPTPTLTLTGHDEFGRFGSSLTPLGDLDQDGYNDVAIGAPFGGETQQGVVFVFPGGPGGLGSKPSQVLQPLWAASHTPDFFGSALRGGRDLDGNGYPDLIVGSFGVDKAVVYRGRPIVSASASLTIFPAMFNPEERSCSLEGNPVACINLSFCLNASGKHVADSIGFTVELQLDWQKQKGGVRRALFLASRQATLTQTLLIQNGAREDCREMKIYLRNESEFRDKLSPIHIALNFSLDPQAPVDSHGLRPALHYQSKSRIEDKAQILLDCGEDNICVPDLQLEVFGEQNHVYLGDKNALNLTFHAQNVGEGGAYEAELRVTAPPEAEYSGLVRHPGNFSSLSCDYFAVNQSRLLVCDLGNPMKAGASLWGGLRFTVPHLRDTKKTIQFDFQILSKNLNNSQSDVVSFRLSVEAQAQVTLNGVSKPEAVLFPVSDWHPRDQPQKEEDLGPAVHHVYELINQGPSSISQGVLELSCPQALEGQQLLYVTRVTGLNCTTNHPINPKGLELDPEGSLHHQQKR
T1 sequence (P08648 895-1049 partner limits assumed): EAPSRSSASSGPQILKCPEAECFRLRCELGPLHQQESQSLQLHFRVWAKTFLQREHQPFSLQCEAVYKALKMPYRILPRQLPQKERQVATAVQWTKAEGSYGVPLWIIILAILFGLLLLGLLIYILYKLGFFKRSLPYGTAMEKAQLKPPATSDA
T1 sequence (P05556 21-798): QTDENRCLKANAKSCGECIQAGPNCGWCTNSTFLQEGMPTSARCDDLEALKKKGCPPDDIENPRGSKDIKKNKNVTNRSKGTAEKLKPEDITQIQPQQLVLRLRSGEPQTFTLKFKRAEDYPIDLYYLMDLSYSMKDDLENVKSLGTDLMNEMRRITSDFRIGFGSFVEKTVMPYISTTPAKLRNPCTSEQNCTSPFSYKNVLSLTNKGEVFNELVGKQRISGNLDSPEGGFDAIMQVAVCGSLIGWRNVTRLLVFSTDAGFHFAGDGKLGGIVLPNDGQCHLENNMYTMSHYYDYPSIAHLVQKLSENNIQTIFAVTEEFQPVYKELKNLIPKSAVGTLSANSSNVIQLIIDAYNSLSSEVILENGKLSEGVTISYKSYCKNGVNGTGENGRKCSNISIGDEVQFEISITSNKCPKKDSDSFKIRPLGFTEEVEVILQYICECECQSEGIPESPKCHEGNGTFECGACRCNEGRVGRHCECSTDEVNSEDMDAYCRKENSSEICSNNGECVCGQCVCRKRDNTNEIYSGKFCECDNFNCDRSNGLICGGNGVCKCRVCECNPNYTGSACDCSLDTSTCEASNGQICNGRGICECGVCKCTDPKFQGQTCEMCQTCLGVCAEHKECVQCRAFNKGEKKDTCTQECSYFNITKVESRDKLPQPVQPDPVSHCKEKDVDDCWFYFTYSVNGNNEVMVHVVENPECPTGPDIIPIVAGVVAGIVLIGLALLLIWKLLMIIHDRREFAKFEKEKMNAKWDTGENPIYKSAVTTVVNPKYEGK
Description: (§1) provided as a Source Data file.
(§2) (3 pictures or pasted objects on this page, not shown here)

[3] = target: T2, EO state of integrin αVβ1 (Homo sapiens, UniProt P05556+P06756); assay: Intrinsic affinity for EO state of αVβ1 stabilized by 12G10 Fab; type: binding; conditions: 2 µM 12G10 Fab versus basal
T2 construct: expressed in transfected cells
T2 sequence (P06756 31-889 limits assumed): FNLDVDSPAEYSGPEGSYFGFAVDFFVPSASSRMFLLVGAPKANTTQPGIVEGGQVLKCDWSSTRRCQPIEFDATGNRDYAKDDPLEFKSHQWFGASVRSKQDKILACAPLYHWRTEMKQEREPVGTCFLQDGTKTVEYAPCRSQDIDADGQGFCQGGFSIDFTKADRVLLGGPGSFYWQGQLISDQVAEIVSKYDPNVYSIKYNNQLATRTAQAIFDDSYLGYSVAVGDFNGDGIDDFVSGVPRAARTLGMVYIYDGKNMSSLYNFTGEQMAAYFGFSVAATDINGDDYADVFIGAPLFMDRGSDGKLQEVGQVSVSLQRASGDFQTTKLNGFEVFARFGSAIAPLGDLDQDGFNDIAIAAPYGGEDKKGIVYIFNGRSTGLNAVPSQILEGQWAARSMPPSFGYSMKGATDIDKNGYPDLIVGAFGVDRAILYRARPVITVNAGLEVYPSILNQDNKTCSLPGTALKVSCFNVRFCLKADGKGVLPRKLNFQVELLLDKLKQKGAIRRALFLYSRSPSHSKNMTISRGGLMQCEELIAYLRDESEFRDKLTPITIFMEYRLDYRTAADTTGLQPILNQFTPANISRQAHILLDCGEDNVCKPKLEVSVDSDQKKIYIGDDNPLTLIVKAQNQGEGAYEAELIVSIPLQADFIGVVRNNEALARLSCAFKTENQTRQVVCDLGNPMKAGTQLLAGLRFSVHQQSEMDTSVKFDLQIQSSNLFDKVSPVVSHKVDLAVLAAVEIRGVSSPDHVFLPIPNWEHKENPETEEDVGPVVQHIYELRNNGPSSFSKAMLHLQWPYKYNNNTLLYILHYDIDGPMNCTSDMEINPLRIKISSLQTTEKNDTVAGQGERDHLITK
T2 sequence (P06756 891-1048 partner limits assumed): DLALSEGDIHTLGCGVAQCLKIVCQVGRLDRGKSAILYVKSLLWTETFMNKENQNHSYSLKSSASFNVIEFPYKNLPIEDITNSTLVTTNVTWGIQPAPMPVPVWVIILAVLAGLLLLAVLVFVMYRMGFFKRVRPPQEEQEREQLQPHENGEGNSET
T2 sequence (P05556 21-798): as the sequence (P05556 21-798) above
Description: as §1, §2

[4] = test system: extended-open β1 integrin on BJ-5ta cells; assay: β1 integrin activation: number and density of bound AF647-12G10 Fab on biotin-PEG-cholesterol immobilized cells; type: cell-based, human
Procedure: Cholesterol (CLS) linked to biotin with PEG (~13 nm) immobilizes cells on neutravidin and TGT-coated surfaces. b Cell images and AF647-12G10 Fab (20 nM) signal 1 h after seeding. Scale bar, 10 µm. c–e Cell area and 12G10 Fab signal were measured 30 min after seeding (n = 43, 55, 62, 69, 21, 29; 83, 59, 83, 92, 68, 62 cells from two independent experiments). c Close-contact enclosed area of cells. […] Fluorescent Fab signal was calibrated by analyzing stepwise signal increase due to nonspecific Fab binding to surfaces outside the area imaged with cells (Supplementary Fig. 4a). e Density of 12G10 Fab for each cell. Lines show mean ± SE. Two-sided t-test for p-values. Not significant (ns), p > 0.05.
The cells were gently harvested by washing in PBS for 1 min, incubating with 0.05% trypsin for 3 min, and then neutralizing with cell culture medium (FBS 10%). […] A Nikon Eclipse Ti microscope equipped with Xenon arc lamp, Nikon perfect focus system, custom total internal reflection fluorescence microscopy (TIRFM) module, and custom reflection interference contrast microscopy (RICM) module was driven by Elements software. […] Images were recorded using an electron-multiplying charge-coupled device (EMCCD; Andor iXon 888). […]

[5] = test system: BJ-5ta cells; assay: Percentage of cells producing rupture signals on RGD-12pN with or without soluble cRGDfK; type: cell-based, human; conditions: RGD-12pN (BHQ2-Cy3, 100 nM); soluble ligand 100 µM; n = 4
Description: Source data are provided as a Source Data file. […]

[6] = test system: BJ-5ta fibroblasts; assay: Spreading of BJ-5ta fibroblasts on linear GRRGD-TGT (peer review file); type: cell-based, human; conditions: 100 nM, 1 h
Procedure: RGT-TGTs is reproduced using the linear RGD, showing that the high tension threshold for cell spreading is not an artifact of ligand cyclization.
Figure R5 | BJ-5ta fibroblasts on linear RGD ligand surfaces. Cells were seeded for one hour on TGTs conjugated […]
with a linear RGD peptide ([…]; GRRGD-TGT). GRRGD-TGT (100 nM) was immobilized on […]
PEG-passivated and neutravidin functionalized surface. GRRGD-54pN was incubated without neutravidin for control. Images (left) and cell area measured from RICM images (right) are shown. Scale bar, 10 μm. […]

[7] = target: integrin α5β1 (EO state); conditions: extended-open conformation; read-out: affinity for α5β1 in extended-open conformation; cited from earlier work
Description: The response of the cytoskeletal machinery is thus not predetermined by cell type, but is highly regulatable by the type of ligand outside the cell. […] Further, by using 264 the specific panels of antibodies, the authors claim that RGD-based adhesion and spreading is dominated by 265 aVb1 integrin in their RGD-dependent system.

[8] = test system: integrin α5β1 on intact cells; conditions: ref Li et al., 2017; read-out: affinity to α5β1 on intact cells; cited from earlier work
Description: For inhibition studies we used a different subset of inhibitory IPI and Biogen Fabs with RGD-mimetic heavy chain CDR3 sequences (Supplementary Table 1). […] They show selectivities for αVβ1, αVβ3 and αVβ5 ranging from 160 fold to 2000 fold. […] As we show in Fig.5, even though α5β1 has the highest 316 expression level among all the RGD-binding integrins expressed on BJ-5ta cell, it could not mediate cell 317 adhesion and spreading on the cyclo- ...

What does the source list for N=C(N)NCCC[C@@H]1NC(=O)[C@H](CCCCN)NC(=O)[C@@H](Cc2ccccc2)NC(=O)[C@H](CC(=O)O)NC(=O)CNC1=O [cRGDfK, cyclo[Arg-Gly-Asp-D-Phe-Lys]]?
tension threshold for cell spreading ([1]; 1 h, nominal Ttol): > 33 pN; spread cells (fraction), sheet 1c ([1]; TGT 1 nM): 0.00565; spread cells (fraction), sheet 1c ([1]; TGT 3 nM): 0.03764; spread cells (fraction), sheet 1c ([1]; TGT 10 nM): 0.4242; spread cells (fraction), sheet 1c ([1]; TGT 30 nM): 0.8968; spread cells (fraction), sheet 1c ([1]; TGT 100 nM): 0.9524; Spread cells on TGT, 12pN ([1]; Ttol 12pN, 1 h, mean, SE in own column, n = 3 independent experiments, given as fraction): 0.00901; Spread cells on TGT, 23pN ([1]; Ttol 23pN, 1 h, mean, n = 3, given as fraction): 0.05; Spread cells on TGT, 33pN ([1]; Ttol 33pN, 1 h, mean, n = 3, given as fraction): 0.0778; Spread cells on TGT, 43pN ([1]; Ttol 43pN, 1 h, mean, n = 3, given as fraction): 0.8932; Spread cells on TGT, 54pN ([1]; Ttol 54pN, 1 h, mean, n = 3, given as fraction): 0.9524; EO affinity over basal affinity, α5β1 [2]: 7000 fold; EO affinity over basal affinity, αVβ1 [3]: 60 fold; force needed for activation of β1 integrin to high affinity state [4]: less than 12 pN; rupture signal with soluble cRGDfK (in words) [5]: No cellproduced a significant rupture signal

Which “spreading on linear RGD-TGT (in words)” value [6] does the source give for GRRGDLATIHGGK [GRRGD-TGT] here?
The value was “no spreading for weak TGTs, with tension tolerance below 40 pN”.

Which Kd [7] does the source give for cyclic-ACRGDGWCGK (disulfide) here?
Its Kd is 2.2 ± 0.5 nM.

Which Kd [8] does the source give for fibronectin here?
Its Kd is 1100 nM.

Source: article PMC9719539, “Single-molecule characterization of subtype-specific β1 integrin mechanics” (Nature Communications, 2022)
